# From PubChem BioAssay (NCI)
#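 96-well plates; 48 h exposure; 5 concentrations. Endpoints by linear interpolation between flanking doses. Not reached: highest tested concentration assigned. TGI denotes the concentration required for complete inhibition of growth.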
# Tests used:
# Experiment in all cases: NCI tumour cell line growth inhibition, 48 h
# 786-0 renal = system: 786-0 renal
# A549 NSCLC = system: A549 NSCLC
# ACHN renal = system: ACHN renal
# BT-549 breast = system: BT-549 breast
# CAKI-1 renal = system: CAKI-1 renal
# CCRF-CEM leukemia = system: CCRF-CEM leukemia
# COLO 205 colon = system: COLO 205 colon
# DU-145 prostate = system: DU-145 prostate
# EKVX NSCLC = system: EKVX NSCLC
# HCC-2998 colon = system: HCC-2998 colon
# HCT-116 colon = system: HCT-116 colon
# HCT-15 colon = system: HCT-15 colon
# HL-60(TB) leukemia = system: HL-60(TB) leukemia
# HOP-62 NSCLC = system: HOP-62 NSCLC
# HOP-92 NSCLC = system: HOP-92 NSCLC
# HS 578T breast = system: HS 578T breast
# HT29 colon = system: HT29 colon
# IGROV1 ovarian = system: IGROV1 ovarian
# K-562 leukemia = system: K-562 leukemia
# KM12 colon = system: KM12 colon
# LOX IMVI melanoma = system: LOX IMVI melanoma
# M14 melanoma = system: M14 melanoma
# MALME-3M melanoma = system: MALME-3M melanoma
# MCF7 breast = system: MCF7 breast
# MDA-MB-435 = system: MDA-MB-435
# MDA-N = system: MDA-N
# MOLT-4 leukemia = system: MOLT-4 leukemia
# NCI-H23 lung = system: NCI-H23 lung
# NCI-H460 lung = system: NCI-H460 lung
# NCI-H522 lung = system: NCI-H522 lung
# NCI/ADR-RES ovarian = system: NCI/ADR-RES ovarian
# OVCAR-3 ovarian = system: OVCAR-3 ovarian
# OVCAR-4 ovarian = system: OVCAR-4 ovarian
# OVCAR-5 ovarian = system: OVCAR-5 ovarian
# OVCAR-8 ovarian = system: OVCAR-8 ovarian
# PC-3 prostate = system: PC-3 prostate
# RPMI-8226 leukemia = system: RPMI-8226 leukemia
# SF-268 CNS = system: SF-268 CNS
# SF-295 CNS = system: SF-295 CNS
# SF-539 CNS = system: SF-539 CNS
# SK-MEL-28 melanoma = system: SK-MEL-28 melanoma
# SK-MEL-5 melanoma = system: SK-MEL-5 melanoma
# SK-OV-3 ovarian = system: SK-OV-3 ovarian
# SN12C renal = system: SN12C renal
# SNB-19 CNS = system: SNB-19 CNS
# SNB-75 CNS = system: SNB-75 CNS
# SR leukemia = system: SR leukemia
# SW-620 colon = system: SW-620 colon
# T-47D breast = system: T-47D breast
# TK-10 renal = system: TK-10 renal
# U251 CNS = system: U251 CNS
# UACC-257 melanoma = system: UACC-257 melanoma
# UACC-62 melanoma = system: UACC-62 melanoma
# UO-31 renal = system: UO-31 renal
# A498 renal = system: A498 renal
# MDA-MB-231 breast = system: MDA-MB-231 breast
# RXF 393 renal = system: RXF 393 renal
# SK-MEL-2 melanoma = system: SK-MEL-2 melanoma
smiles,measurement,setting,value
C/C=C1/CN2CCC3(O)c4ccccc4N4C=C(C(=O)OC)C1CC2C43O (stereo unspecified),TGI,786-0 renal,> 100 µM
same,TGI,A549 NSCLC,> 100 µM
same,TGI,ACHN renal,> 100 µM
same,TGI,BT-549 breast,> 100 µM
same,TGI,CAKI-1 renal,> 100 µM
same,TGI,CCRF-CEM leukemia,> 100 µM
same,TGI,COLO 205 colon,> 100 µM
same,TGI,DU-145 prostate,> 100 µM
same,TGI,EKVX NSCLC,> 100 µM
same,TGI,HCC-2998 colon,> 100 µM
same,TGI,HCT-116 colon,> 100 µM
same,TGI,HCT-15 colon,> 100 µM
same,TGI,HL-60(TB) leukemia,> 100 µM
same,TGI,HOP-62 NSCLC,> 100 µM
same,TGI,HOP-92 NSCLC,> 100 µM
same,TGI,HS 578T breast,> 100 µM
same,TGI,HT29 colon,> 100 µM
same,TGI,IGROV1 ovarian,> 100 µM
same,TGI,K-562 leukemia,> 100 µM
same,TGI,KM12 colon,> 100 µM
same,TGI,LOX IMVI melanoma,> 100 µM
same,TGI,M14 melanoma,> 100 µM
same,TGI,MALME-3M melanoma,> 100 µM
same,TGI,MCF7 breast,> 100 µM
same,TGI,MDA-MB-435,> 100 µM
same,TGI,MDA-N,> 100 µM
same,TGI,MOLT-4 leukemia,> 100 µM
same,TGI,NCI-H23 lung,> 100 µM
same,TGI,NCI-H460 lung,> 100 µM
same,TGI,NCI-H522 lung,> 100 µM
same,TGI,NCI/ADR-RES ovarian,> 100 µM
same,TGI,OVCAR-3 ovarian,> 100 µM
same,TGI,OVCAR-4 ovarian,> 100 µM
same,TGI,OVCAR-5 ovarian,> 100 µM
same,TGI,OVCAR-8 ovarian,> 100 µM
same,TGI,PC-3 prostate,> 100 µM
same,TGI,RPMI-8226 leukemia,> 100 µM
same,TGI,SF-268 CNS,> 100 µM
same,TGI,SF-295 CNS,> 100 µM
same,TGI,SF-539 CNS,> 100 µM
same,TGI,SK-MEL-28 melanoma,> 100 µM
same,TGI,SK-MEL-5 melanoma,> 100 µM
same,TGI,SK-OV-3 ovarian,> 100 µM
same,TGI,SN12C renal,> 100 µM
same,TGI,SNB-19 CNS,> 100 µM
same,TGI,SNB-75 CNS,> 100 µM
same,TGI,SR leukemia,> 100 µM
same,TGI,SW-620 colon,> 100 µM
same,TGI,T-47D breast,> 100 µM
same,TGI,TK-10 renal,> 100 µM
same,TGI,U251 CNS,> 100 µM
same,TGI,UACC-257 melanoma,> 100 µM
same,TGI,UACC-62 melanoma,> 100 µM
same,TGI,UO-31 renal,> 100 µM
[N-]=[N+]=Nc1c(C=O)c(=O)n(-c2ccccc2)c2ccccc12,TGI,786-0 renal,35 µM
same,TGI,A498 renal,10.1 µM
same,TGI,A549 NSCLC,> 100 µM
same,TGI,ACHN renal,40.7 µM
same,TGI,BT-549 breast,> 100 µM
same,TGI,CAKI-1 renal,27.7 µM
same,TGI,CCRF-CEM leukemia,18.9 µM
same,TGI,COLO 205 colon,46.5 µM
same,TGI,DU-145 prostate,> 100 µM
same,TGI,HCC-2998 colon,40.1 µM
same,TGI,HCT-15 colon,46.4 µM
same,TGI,HL-60(TB) leukemia,> 100 µM
same,TGI,HOP-62 NSCLC,> 100 µM
same,TGI,HOP-92 NSCLC,31.1 µM
same,TGI,HS 578T breast,79.1 µM
same,TGI,HT29 colon,55.1 µM
same,TGI,IGROV1 ovarian,44.8 µM
same,TGI,K-562 leukemia,21.5 µM
same,TGI,KM12 colon,> 100 µM
same,TGI,LOX IMVI melanoma,31.3 µM
same,TGI,M14 melanoma,34.1 µM
same,TGI,MALME-3M melanoma,45.3 µM
same,TGI,MCF7 breast,64.2 µM
same,TGI,MDA-MB-231 breast,> 100 µM
same,TGI,MDA-MB-435,34.5 µM
same,TGI,MDA-N,> 100 µM
same,TGI,MOLT-4 leukemia,12.7 µM
same,TGI,NCI-H23 lung,38 µM
same,TGI,NCI-H460 lung,> 100 µM
same,TGI,NCI/ADR-RES ovarian,88.5 µM
same,TGI,OVCAR-3 ovarian,32.4 µM
same,TGI,OVCAR-4 ovarian,37.4 µM
same,TGI,OVCAR-5 ovarian,> 100 µM
same,TGI,PC-3 prostate,43.8 µM
same,TGI,RXF 393 renal,27.2 µM
same,TGI,SF-268 CNS,> 100 µM
same,TGI,SF-295 CNS,> 100 µM
same,TGI,SF-539 CNS,> 100 µM
same,TGI,SK-MEL-2 melanoma,80.5 µM
same,TGI,SK-MEL-28 melanoma,35.3 µM
same,TGI,SK-MEL-5 melanoma,27.5 µM
same,TGI,SK-OV-3 ovarian,> 100 µM
same,TGI,SN12C renal,> 100 µM
same,TGI,SNB-19 CNS,> 100 µM
same,TGI,SNB-75 CNS,94.2 µM
same,TGI,SW-620 colon,7.53 µM
same,TGI,T-47D breast,61.4 µM
same,TGI,TK-10 renal,39.1 µM
same,TGI,U251 CNS,> 100 µM
same,TGI,UACC-257 melanoma,50.1 µM
same,TGI,UACC-62 melanoma,28.8 µM
same,TGI,UO-31 renal,31.9 µM
